The text below walks through data of article PMC10196870, “Structural insights into the substrate recognition of serine palmitoyltransferase from Sphingobacterium multivorum” (The Journal of Biological Chemistry, 2023).

Entries after “also recorded” stand apart in the source; their conditions may differ. Marks after values point to notes of the source that are not given here.

The term Kd denotes the free concentration of one partner at which half of the binding sites on the other are occupied at equilibrium, for simple one-to-one binding. A lower Kd goes with a tighter complex.

For data set [1], the target named is T1, Sphingobacterium multivorum SPT (Sphingobacterium multivorum, UniProt A7BFV6).
T1 construct: harboring the plasmid that express the full length of S. multivorum SPT; made in house; host or cells: Escherichia coli BL21 (DE3) pLysS
T1 sequence (A7BFV6 whole entry): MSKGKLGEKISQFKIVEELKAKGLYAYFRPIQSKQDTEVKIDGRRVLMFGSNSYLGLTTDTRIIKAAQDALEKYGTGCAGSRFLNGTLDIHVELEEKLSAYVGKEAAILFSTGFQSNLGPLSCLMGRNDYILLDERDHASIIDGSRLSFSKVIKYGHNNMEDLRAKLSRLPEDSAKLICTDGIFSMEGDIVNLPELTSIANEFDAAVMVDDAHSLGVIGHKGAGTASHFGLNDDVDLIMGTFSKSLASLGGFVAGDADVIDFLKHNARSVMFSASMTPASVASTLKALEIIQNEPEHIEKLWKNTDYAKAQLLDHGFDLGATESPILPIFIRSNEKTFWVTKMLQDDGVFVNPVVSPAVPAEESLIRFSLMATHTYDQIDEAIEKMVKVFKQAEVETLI
The data set is described as follows: Steady-state kinetic analysis of SPT (LCB production from amino acid and PalCoA, quantified by TLC fluorescence). The following applies: 1 mM PalCoA; for Kmapp / kcatapp: mean ± SD. In kind it is biochemical. The method, then:
The assay was performed as follows; 200 mM of amino acid (glycine, L-Ala, L-Ser, L-Hse, or L-Thr) was incubated with 1 mM PalCoA and 100 μM SPT in 100 μl of 100 mM potassium phosphate, pH 7.5, for 60 min at 37 °C. The reactions were terminated by addition of the equal volume of 2 N ammonia. Lipids were extracted by successive addition and mixing of 750 μl of chloroform/methanol (1:2, v/v), 250 μl of chloroform, and 250 μl of 1% KCl. Phases were separated by centrifugation, and the organic phase was recovered. The aqueous phase was reextracted with 200 μl of chloroform, and, after centrifugation, the organic phase was combined with the organic phase from the first extraction. The organic phase was washed with water/chloroform/methanol (47:48:3, v/v), dried, and suspended in chloroform/methanol (2:1, v/v). The extracted lipids were resolved by normal-phase TLC on Silica Gel 60 high-performance TLC plates (Merck) with chloroform/methanol/2 N ammonia (40:10:1, v/v) or chloroform/methanol/triethanol amine (95:5:10, v/v) and visualized by spraying with ninhydrin reagent followed by gentle heating. For the quantitative analysis, the UV-fluorescence intensities of the reaction products on TLC plates were visualized by a Fusion chemiluminescence imaging system using a UV-light box and analyzed by a FUSION Capt software (VILBER; https://www.garvan.org.au/research/capabilities/molecular-genetics/ documents/fusion_manual_2016.pdf).
Steady-state kinetic parameters were determined by varying the concentrations of the amino acid substrate in the presence of 1 mM PalCoA in 100 μl of 100 mM potassium phosphate, pH 7.5, at 37 °C. The concentration of SPT and the incubation time were 1 μM and 10 min for L-Ser; 5 μM and 10 min for L-Hse; 20 μM and 30 min for L-Ala; and 100 μM and 120 min for Gly. The reaction termination, lipid extraction, TLC analysis, and quantification of the reaction products on TLC plates were described above. The apparent velocities (min^–1) versus amino acid concentrations (mM) plots were fitted to the Michaelis–Menten equation, v = Vmax[S]/(Km+[S]), by nonlinear regression using the Igor Pro 6.37 (https://www.wavemetrics.com/forum/news-and-announcements/igor-pro-637-released). software (Wave Matrix Inc.) to determine the apparent kinetic parameters, kcatapp and Kmapp , of SPT for each amino acid substrate.
The reactions were carried out in the presence of 1 mM PalCoA as described in Experimental procedures. Apparent rate constants, obtained by dividing the rate of the LCB production by the concentration of the enzyme, were plotted against concentrations of amino acid substrate, L-Ser (A), L-Hse (B), L-Ala (C), or glycine (D). The plots were fitted to the equation of the Michaelis–Menten mechanism, v = Vmax[S]/(Km+[S]), by nonlinear regression using the software Igor Pro (ver 6.37, WaveMetrics, Lake Oswego, OR), and the Kmappand kcatapp of SPT for each amino acid substrate were calculated. Solid line represents a theoretical curve based on the above equation. Each data point is a mean with the error bar showing standard deviation from at least three independent experiments.

Data set [2] addresses T1, Sphingobacterium multivorum SPT. The data set is described as follows: Spectroscopic titration of SPT with amino acids (dissociation constants, external aldimine formation). In kind it is binding. Conditions: 10 μM SPT, pH 7.5, 25 °C. The method, then: Next, binding of the amino acids to the S. multivorum SPT was examined by spectroscopic titration.
Figure 3 Spectroscopic analysis of the reaction of the Sphingobacterium multivorum SPT with L-Ala or L-Thr.A, the UV/vis absorption spectra of SPT (10 μM) in the presence of 800 mM L-Ala were measured at time intervals of 10 min for 500 min. Each line numbered 1 to 12 corresponds to the spectrum at 0, 10, 20, 30, 40, 50, 60, 80, 90, 110, 150, and 500 min, respectively, after SPT was mixed with L-Ala. […] B, spectroscopic titration of SPT with L-Ala. Absorbance at 420 nm in the presence of 0, 50, 100, 200, 400, and 600 mM L-Ala at 0 min was measured, and apparent molar absorptivities at 420 nm were plotted against L-Ala concentrations. […] C, absorption spectra of SPT (10 μM) in the presence of 0, 1.3, 3.7, 7.4, 12.2, 18.1, 24.9, 32.7, 41.3, and 51.6 mM L-Thr (lines 1–10, respectively). […] SPT, serine palmitoyltransferase.
The titration assay was carried out by using 10 μM SPT in 100 mM potassium phosphate and 0.1 mM EDTA, pH 7.5, at 25 °C. The changes of the 422 nm absorption intensities of SPT upon addition of amino acids were plotted against the final concentrations of the amino acids, and the Kd values were calculated by fitting to a hyperbolic saturation curve using Igor Pro 6.37. software. UV/vis spectra of SPT were recorded with a Hitachi U-3310 spectrophotometer.

The target is the same in data set [3]. Put plainly: TLC analysis of LCB formation from amino acids by SPT (ninhydrin). The following applies: 200 mM amino acid, 1 mM PalCoA, 100 μM SPT, pH 7.5, 60 min, 37 °C. In kind it is biochemical.
Description: Reaction products were extracted with solvents and separated by TLC. […] Each LCB product was quantified by the fluorescence intensity based on the standard curve obtained by using the corresponding authentic compound.
Data set [4] shares this target. Put plainly: UV/vis time course of conversion of PLP and L-Ala to PMP and pyruvate by SPT (abortive transamination). In kind it is biochemical. The method, then: Next, binding of the amino acids to the S. multivorum SPT was examined by spectroscopic titration. […] Therefore, the absorption at 420 nm just after SPT was mixed with L-Ala was measured and plotted against concentrations of L-Ala (Fig. 3B), and the Kd value for L-Ala was estimated as 65 ± 10 mM (Table 1). For the other amino acids, only spectral changes corresponding to the external aldimine formation between PLP and the amino acids were observed, and side reactions such as PMP formation were not detected.
Figure 3 Spectroscopic analysis of the reaction of the Sphingobacterium multivorum SPT with L-Ala or L-Thr.A, the UV/vis absorption spectra of SPT (10 μM) in the presence of 800 mM L-Ala were measured at time intervals of 10 min for 500 min. Each line numbered 1 to 12 corresponds to the spectrum at 0, 10, 20, 30, 40, 50, 60, 80, 90, 110, 150, and 500 min, respectively, after SPT was mixed with L-Ala. […] The lines represent theoretical fits to a single-exponential equation ( y=A×e^−k⋅t ), where k is 0.029 ± 0.00024 min^–1. B, spectroscopic titration of SPT with L-Ala. Absorbance at 420 nm in the presence of 0, 50, 100, 200, 400, and 600 mM L-Ala at 0 min was measured, and apparent molar absorptivities at 420 nm were plotted against L-Ala concentrations. […]

Setting [5] is: 100 mM potassium phosphate pH 7.5, 37 °C.
Where [6] appears, read: 100 mM potassium phosphate, 0.1 mM EDTA, absorption at 422 nm, mean ± SD.
The mark [7] stands for this setting: reaction mixture supplemented with 0.1 mM PLP, pH 7.5, 37 °C.

`NCC(=O)O` [Gly, glycine]: in data set [1], the “Kmapp, fold larger than that for L-Ser” value is reported as 21 fold and the “kcatapp, fold smaller than that for L-Ser” value was 36,000 fold. Moreover, in data set [1] (setting [5]), the Kmapp came out at 77 ± 8.1 mM and the kcatapp was found to be 0.008 ± 0.002 min^–1. In data set [1] (pH 7.5, 37 °C), the “kcatapp/Kmapp (apparent catalytic efficiency)” value (shortened to “kcatapp/Kmapp”) amounted to 0.0001 min^–1 mM^–1. This molecule also registered an equilibrium dissociation constant (Kd) in data set [2] (setting [6]) of 71 ± 5.5 mM. Also, in data set [3], the “LCB formation (reaction product on TLC)” value was “converted to corresponding LCBs”.
Consider `C[C@H](N)C(=O)O` [L-Ala, L-alanine], for which, in data set [4] (SPT (10 μM) incubated with 800 mM L-Ala), the “half-life τ1/2 of conversion of PLP and L-Ala to PMP and pyruvate” value is 24.0 ± 0.2 min. Also, in data set [4] (SPT (10 μM), 800 mM L-Ala), the “rate constant k of single-exponential change in absorption at 420 nm and 328 nm” value came to 0.029 ± 0.00024 min^–1. For the same molecule, in data set [1] (pH 7.5, 37 °C), the “kcatapp/Kmapp” value amounted to 0.0037 min^–1 mM^–1. For the same molecule, in data set [1] (setting [7]), the Kmapp was 110 ± 9.0 ^c mM and the kcatapp is recorded as 0.42 ± 0.011 ^c min^–1. Also, binding in data set [2] (absorption intensity at 424 nm immediately after SPT was mixed with L-Ala (text: 420 nm)) was characterised by a dissociation constant (Kd) of 65 ± 10 mM. Also, in data set [3], the “LCB formation (reaction product on TLC)” value is “converted to corresponding LCBs”.
Turning to `N[C@@H](CCO)C(=O)O` [L-Hse, L-homoserine], in data set [1] (setting [5]), the Kmapp is on record as 82 ± 14 mM and the kcatapp came out at 4.5 ± 0.28 min^–1. Further, the “kcatapp/Kmapp” value in data set [1] (pH 7.5, 37 °C) is on record as 0.055 min^–1 mM^–1. In data set [2] (setting [6]), this molecule came in with a Kd of 3.6 ± 0.2 mM. Moreover, in data set [3], the “LCB formation (reaction product on TLC)” value is “converted to corresponding LCBs”.
Consider `N[C@@H](CO)C(=O)O` [L-Ser, L-serine], for which, in data set [1] (setting [5]), the Kmapp worked out at 3.6 ± 0.87 mM and the kcatapp is reported as 13 ± 1.0 min^–1. In data set [1] (pH 7.5, 37 °C), the “kcatapp/Kmapp” value is 3.6 min^–1 mM^–1. In data set [2] (setting [6]), this molecule returned a Kd of 0.45 ± 0.05 mM.
As to `C[C@@H](O)[C@H](N)C(=O)O` [L-Thr, L-threonine], the “Kmapp, fold larger than that for L-Ser” value in data set [1] is 23 fold. In data set [2] (setting [6]), the affinity, expressed as Kd, was 8.2 ± 1 mM. Also, the “LCB formation (reaction product on TLC)” value in data set [3] is given as “not detected; also recorded: nonproductive ligand”.
With `NC(CO)(CO)CO` [Tris, tris(hydroxymethyl)aminomethane], binding in data set [2] (setting [6]) was characterised by a dissociation constant (Kd) of 40 ± 5.6 mM.
